# ± gives the expanded uncertainty stated by the source.
# Conditions: 298.15 K; 101.33 kPa; Liquid; Vibrating tube method
row,SMILES,molar volume [m3/mol]
1,"CCC(C)(C)N [1,1-dimethylpropylamine]",0.0001192 ± 1.3e-07
2,CCCCCCCCCN [1-aminononane],0.0001829 ± 1.8e-07
3,CCCCN [1-butanamine],9.987e-05 ± 1e-07
4,CCCCCCCCCCN [1-decanamine],0.000199 ± 2e-07
5,CCCCCCCCCCCCN [1-dodecanamine],0.0002323 ± 2e-07
6,CCC(N)CC [1-ethylpropylamine],0.0001172 ± 2.4e-07
7,CCCCCCCN [1-heptanamine],0.0001496 ± 1.1e-07
8,CCCCCCN [1-hexanamine],0.0001331 ± 1.1e-07
9,CCCCCCCCN [1-octanamine],0.0001662 ± 1.1e-07

# Continued, values first:
row,molar volume [m3/mol],SMILES
1,0.0001163 ± 1.1e-07,CCCCCN [1-pentanamine]
2,0.0002655 ± 1e-07,CCCCCCCCCCCCCCN [1-tetradecanamine]
3,0.0001019 ± 1.1e-07,CCC(C)N (stereo not drawn) [2-butanamine]
4,0.000101 ± 1e-07,CC(C)CN [2-methyl-1-propanamine]
5,0.0001065 ± 1e-07,CC(C)(C)N [2-methyl-2-propanamine]
6,8.672e-05 ± 1e-07,CC(C)N [2-propanamine]
7,0.000117 ± 1.1e-07,CC(C)CCN [3-methyl-1-butanamine]
8,0.0001475 ± 1.1e-07,CCCCCCC [heptane]
9,8.315e-05 ± 1e-07,CCCN [propan-1-amine]
